{
  "source": "patent US10774110B2",
  "about": "“Rapadocins, inhibitors of equilibrative nucleoside transporter 1 and uses thereof” (The Johns Hopkins University, priority 2016, dated 2020)",
  "key": {"[1]": {"target": "T1, ENT1 (Homo sapiens, UniProt P62942+Q99808)", "experiment": "3H-Thymidine uptake, potency of Rapadocin analogs (Table 2)", "format": "cell-based", "design": "endogenous in cells", "from_the_text": "(§1) Rapadocin is a synthetic macrocycle composed of two ‘domains’—a FKBD (FKBP12 binding domain) and a peptide domain. […] The peptidic fragment can tolerate a range of modifications with varying effects on ENT1 inhibition.\nTable 2 discloses the potency of various Rapadocin analogs."}, "[2]": {"system": "HUVEC", "experiment": "3H-Thymidine uptake in HUVEC", "format": "cell-based, human", "from_the_text": "FIG. 2. Rapadocin inhibits ^3H-Thymidine uptake in Human Umbilical Vein Endothelial Cells (HUVEC).\n(§2) uptake in at least seven cell lines and is predicted to inhibit nucleoside uptake in all human cell lines (see e.g., FIG. 2 and Table 1)."}, "[3]": {"system": "A549", "experiment": "3H-Thymidine uptake in A549", "format": "cell-based, human", "from_the_text": "as §2"}, "[4]": {"target": "T1, ENT1", "experiment": "3H-Adenosine / nucleoside uptake by hENT1 (vs hENT2)", "format": "cell-based", "from_the_text": "FIG. 1. Rapadocin inhibits ^3H-Adenosine uptake by specifically inhibiting hENT1.\nRapadocin inhibits nucleoside"}, "[5]": {"target": "T2, FKBP12 (Homo sapiens, UniProt P62942)", "T2 construct": "endogenous in cells", "T2 sequence (P62942 whole entry)": "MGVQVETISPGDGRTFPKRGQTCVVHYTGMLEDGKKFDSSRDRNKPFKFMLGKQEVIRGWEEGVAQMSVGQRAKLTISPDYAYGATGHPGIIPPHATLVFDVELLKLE", "experiment": "Antagonism of uptake inhibition by FKBP12-binders", "format": "cell-based", "settings": "FIG. 3", "from_the_text": "FIG. 3. Rapadocin's uptake inhibition is antagonized by FKBP12-binders Rapamycin and FK506."}, "[6]": {"system": "HeLa", "experiment": "3H-Thymidine uptake in HeLa", "format": "cell-based, human", "from_the_text": "as §2"}, "[7]": {"system": "MCF-7", "experiment": "3H-Thymidine uptake in MCF-7", "format": "cell-based, human", "from_the_text": "as §2"}, "[8]": {"experiment": "Solubility in aqueous solutions", "format": "physicochemical"}, "[9]": {"system": "kidney ischemia reperfusion injury", "experiment": "Kidney ischemia reperfusion injury mouse model", "format": "in vivo", "from_the_text": "as §1\n(§3) Two human and animal models have been studied to show the efficacy of Rapadocin (FIGS. 4 and 5). Under several physiological conditions, adenosine is released into the blood where it can act on adenosine receptors. Normally, this adenosine (ADO) is rapidly reabsorbed via ENT1. In the presence of Rapadocin, uptake is inhibited and ADO is able to produce enhanced signaling leading to several potentially beneficial physiological responses."}, "[10]": {"system": "RKO", "experiment": "3H-Thymidine uptake in RKO", "format": "cell-based, human", "from_the_text": "as §2"}, "[11]": {"system": "platelet aggregation in human blood", "experiment": "Platelet aggregation in human blood activated by ADP", "format": "cell-based", "settings": "FIG. 4", "from_the_text": "as §3"}, "[12]": {"system": "MDA MB-231", "experiment": "3H-Thymidine uptake in MDA MB-231", "format": "cell-based, human", "from_the_text": "as §2"}, "[13]": {"experiment": "Stability in cell culture media", "format": "physicochemical", "settings": "5 days, 37° C., 10% Fetal Bovine Serum"}, "[14]": {"system": "293T", "experiment": "3H-Thymidine uptake in 293T", "format": "cell-based, human", "from_the_text": "as §2"}},
  "note": "Like-named read-outs stand apart in the source and are kept apart here.",
  "data": [
    {"smiles": "c1ccc2sccc2c1", "note": "[Analog 95-15-8]", "values": [
      {"measurement": "EC50", "setting": "[1]; cells printed with uM, read-out: EC50 3H-Tymidine uptake", "result": "> 1", "unit": "µM"}
    ]},
    {"smiles": "COc1ccc(CC[C@H]2OC(=O)[C@@H]3CCCCN3C(=O)C(=O)C(C)(C)COC(=O)C=CCCN(C)C(=O)[C@H](CC(C)C)N(C)C(=O)[C@@H]3CCCN3C(=O)[C@H](Cc3ccc(OCC(=O)NCCOCCOCCNC(=O)CCCCC4SCC5NC(=O)NC54)cc3)NC(=O)[C@H](c3ccccc3)NC(=O)CCC(=O)Nc3cccc2c3)cc1OC", "note": "(some centres unmarked) [JW95TyrBiotin]", "values": [
      {"measurement": "EC50", "setting": "[1]", "result": 0.064, "unit": "µM"}
    ]},
    {"smiles": "C#CCCC1(CCOc2ccc(C[C@@H]3NC(=O)[C@H](c4ccccc4)NC(=O)CCC(=O)Nc4cccc(c4)[C@@H](CCc4ccc(OC)c(OC)c4)OC(=O)C4CCCCN4C(=O)C(=O)C(C)(C)COC(=O)C=CCCN(C)C(=O)[C@H](CC(C)C)N(C)C(=O)[C@@H]4CCCN4C3=O)cc2)N=N1", "note": "(some centres unmarked) [JW95TyrDiaz]", "values": [
      {"measurement": "EC50", "setting": "[1]", "result": 0.02, "unit": "µM"}
    ]},
    {"smiles": "COc1ccc(CC[C@H]2OC(=O)[C@@H]3CCCCN3C(=O)C(=O)C(C)(C)COC(=O)/C=C/CCN(C)C(=O)[C@H](CC(C)C)N(C)C(=O)[C@H]3CCCN3C(=O)[C@H](Cc3ccccc3)N(C)C(=O)[C@H](c3ccccc3)NC(=O)CCC(=O)Nc3cccc2c3)cc1OC", "note": "[Rapadocin]", "values": [
      {"measurement": "EC50", "setting": "[2]", "result": 6.4, "unit": "nM"},
      {"measurement": "3H-Thymidine uptake inhibition", "setting": "[2]; FIG. 2", "result": "inhibits"},
      {"measurement": "EC50", "setting": "[3]", "result": 6.3, "unit": "nM"},
      {"measurement": "3H-Adenosine uptake inhibition", "setting": "[4]; FIG. 1, by specifically inhibiting hENT1", "result": "inhibits"},
      {"measurement": "inhibition of nucleoside uptake by hENT1 over hENT2", "setting": "[4]; selectivity hENT1 over hENT2, FIG. 1", "result": "potently and specifically inhibits"},
      {"measurement": "uptake inhibition in presence of FKBP12-binders Rapamycin and FK506", "setting": "[5]", "result": "antagonized"},
      {"measurement": "EC50", "setting": "[6]", "result": 16.3, "unit": "nM"},
      {"measurement": "EC50", "setting": "[7]", "result": 9, "unit": "nM"},
      {"measurement": "solubility", "setting": "[8]", "result": "≤ 10", "unit": "µM"},
      {"measurement": "tolerability in animals", "setting": "[9]; kidney ischemia model", "result": "safely tolerated"},
      {"measurement": "protection against kidney ischemia reperfusion injury", "setting": "[9]; mouse model, FIG. 5", "result": "protects against kidney ischemia reperfusion injury"},
      {"measurement": "EC50", "setting": "[1]", "result": 0.00616, "unit": "µM"},
      {"measurement": "EC50", "setting": "[10]", "result": 11.4, "unit": "nM"},
      {"measurement": "platelet aggregation", "setting": "[11]", "result": "inhibits platelet aggregation"},
      {"measurement": "EC50", "setting": "[12]", "result": 41.1, "unit": "nM"},
      {"measurement": "resistance to degradation", "setting": "[13]", "result": "resist degradation over 5 days"},
      {"measurement": "EC50", "setting": "[14]", "result": 5, "unit": "nM"}
    ]}
  ]
}
